Results from patent publication US8153821B2, “Compounds” (priority 2008, dated 2012).

Legend:
[1] = Dynamic vapor sorption (DVS); type: physicochemical; conditions: 25° C.
Protocol: Sorption isotherms were determined using a SMS DVS Intrinsic moisture sorption analyzer controlled by SMS Analysis suite software. The sample temperature was maintained at 25° C. by the instrument controls. The humidity was controlled by mixing streams of dry and wet nitrogen, with a total flow rate of 200 mL/min. The relative humidity was measured by a calibrated Rotronic probe (dynamic range of 1.0-100% RH), located near the sample. The weight change, (mass relaxation) of the sample as a function of % RH was constantly monitored by the microbalance (accuracy ±0.005 mg).
Typically a 5-20 mg sample was placed on the tared mesh stainless steel basket under ambient conditions. The sample was loaded and unloaded at 40% RH and 25° C. (typical ambient conditions). A moisture sorption isotherm was performed as outlined below (2 scans giving 1 complete cycle). The standard isotherm was performed at 25° C. at 10% RH intervals over a 0-90% RH range.

C(=C\[C@H]1CCNC1)/c1cncc(OC2CCOCC2)c1.O=C(O)C(=O)O
melting point: 180 to 181 °C

C(=C\[C@H]1CCNC1)/c1cncc(OC2CCOCC2)c1.O=C(O)C[C@H](O)C(=O)O [(R)-3-((E)-2-(pyrrolidin-3-yl)vinyl)-5-(tetrahydropyran-4-yloxy)pyridine mono-L-malate]
DVS water uptake [1]: minimum water uptake up to 80% R.H.
